The text below walks through data of US20040235070A1, “Immune reactivity to expressed activated oncogenes for diagnosis and treatment of malignancy” (Washington Research Foundation, priority 1990, published 2004).

Assay [1] has as its system bcr3-abl2 peptide-specific CD4^+ T cell clones. Put plainly: Proliferative assay of bcr3-abl2 peptide-specific CD4+ T cell clones ([3H] thymidine incorporation). It is filed as cell-based, BALB/c mice. Particulars: for [^3H] Thymidine Incorporation (c.p.m.) after Stimulation with bcr3-abl2 peptide (5 μg/ml): peptides of varying lengths 5 μg/ml, 96 hour culture, Table 4; for [^3H] Thymidine Incorporation (c.p.m.): peptide 5 μg/ml, Table 2; for [^3H] Thymidine Incorporation (c.p.m.) / [^3H] Thymidine Incorporation (c.p.m.) after Stimulation with bcr-abl 12 peptide/proteins (μg/ml): 96-hour culture; for [^3H] Thymidine Incorporation (c.p.m.) after Stimulation with bcr-abl 12 peptide/proteins (μg/ml): Table 5. On the procedure:
Mice (female BALB/c and C57BL/6 (B6), 6 to 8 weeks old; Jackson Laboratories, Bar Harbor, Me.) were inoculated twice at 2-week intervals by subcutaneous injection with Complete Freund's Adjuvant (Sigma Chemical Co., St. Louis, Mo.) alone or emulsified with bcr3-abl2 peptide (100 μg). Ten days after the final immunization, single cell suspensions of draining lymph nodes and spleens were prepared in medium consisting of 1:1 mixture of RPMI 1640 (Gibco Laboratories, Inc., Grand Island, N.Y.) and EHAA (Biofluids, Inc., Rockville, Md.) with 2.5×10^−5 M 2-ME, 200 U/ml penicillin, 200 U/ml streptomycin, 10 mM L-glutamine and 10% fetal calf serum. For proliferative assays, lymphocytes were cultured in 96-well plates at 2×10^5 cells per well with 4×10^5 irradiated syngeneic spleen cells (3,000 rad) and designated (total volume of 200 μl per well). Plates were incubated in a humidified atmosphere under 5% CO2 tension at 37° C. for 72 hours, and then pulsed for 18 hours with […] of [^3H]-thumidine per well. Proliferative responses of cloned T cells utilized 2×10^4 cells per well with 5×10^5 irradiated syngeneic spleen cells (3,000 rad) and designated peptide.
Lymphocytes from the draining lymph nodes of mice immunized with bcr3-abl2 peptide were cultured in 24-well culture plates at 4×10^6 cells per well with 2×10^6 irradiated syngeneic spleen cells and bcr3-abl2 peptide at 25 μg/ml (total volume 2 ml). The plates were cultured in a humidified atmosphere under 5% CO2 tension at 37° C. for 5 days then split 1:2. After 10 days, lymphocytes were restimulated at 1×10^6 lymphocytes per well in 24-well culture plates with 5×10^6 irradiated syngeneic spleen cells and peptide (25 μg/ml). Two days after the second in vitro stimulation, T cells were-plated at 0.5 cells per well in 96-well flat-bottom plates with 1×10^6 irradiated syngeneic spleen cells and rIL-2 (50 U/ml). Derived T cell clones were maintained by periodic stimulation with peptide (1 μg/ml) plus irradiated syngeneic spleen cells followed by expansion with rIL-2 (10 U/ml) every 2 weeks. T cell clones were stained with FITC-conjugated anti-Thy 1.2 (1%), or FITC-conjugated anti-Lyt2 (2%), or PE-conjugated anti-L3T4 (3%) mAbs (Becton Dickinson Immunocytochemistry Systems, Mountain View, Calif.) at 4° C. for 45 minutes.
Background: Uptake of a labelled nucleoside into DNA is a usual measure of proliferation.

Assay [2] deals with spleen cells from mice immunized with p54-66[L61]. In words: Proliferative response of spleen cells from mice immunized with p54-66[L61] ras peptide. The class given is cell-based, C3H/HeN mice. Conditions: lymphocytes from mice immunized with p54-66[L61]; FIG. 4. The method, then: This peptide is denoted as p54-66[L61] or [L61]. C3H/HeN mice were immunized twice subcutaneously at two week intervals with Ribi adjuvant alone or adjuvant emulsified with p54-66[L61] ras peptide (100 μg). Two weeks after the final immunization, spleen cells from mice injected with adjuvant alone (open bar) or adjuvant plus p54-66[L61] ras peptide (black bar) were harvested and tested in vitro for proliferative response to the indicated p54-66 ras peptide (100 μg/ml). The peptide containing the substitution of lysine (K) for glutamine at position 61 is denoted as [K61]. The data represent the mean of triplicate determinations of the c.p.m. of incorporated ^3HTdR±S.D.

Assay [3] has as its system lymphocytes from mice immunized with the Arg-12 peptide. In words: Proliferation assay of lymph node lymphocytes from mice immunized with ras Arg-12 peptide. It is filed as cell-based. Particulars: lymphocytes from C57BL/6 mice immunized with a single dose of Arg-12 peptide; FIG. 1. The method, then: FIG. 1 graphically illustrates that specific T cell responses to point-mutated ras peptide can be generated by in vivo priming on day 0 with 50 μg of a peptide of 12 amino acid length constructed identically to murine ras-p21 (amino acids 5-16) but with the substitution of arginine for the glycine normally found at position 12 (i.e., position 12 of ras-p21 but position 8 of the peptide). This peptide is denoted as ras p5-16[R12] or as ras-R12. Mice were immunized with ras-R12 peptide plus adjuvant or with adjuvant alone. […]
Lymphocytes obtained from immunized mice were suspended in culture medium (consisting of RPMI 1640 Gibco supplemented with 10% fetal calf serum, 2 mM L-glutamine, 100 U/ml streptomycin, 100 U/ml penicillin and 2.5×10^−5 M 2-mercaptoethanol) and were plated in 96-well flat bottom microtiter plates (Costar Co., Cambridge, Mass.) at 1×10^5 cells per well. […] Lymphocytes from individual wells were collected onto filter paper disks using a multi-channel harvester then transferred to scintillation fluid in individual counting tubes. β emission was measured using a Beckmann liquid scintillation spectrophotometer. […]

Regarding “IVHSATGFKQSSKALQRPVASD (IVHSATGFKQSSKALQRPVASD) [bcr3-abl2 22-mer]”, the “[^3H] Thymidine Incorporation (c.p.m.) after Stimulation with bcr3-abl2 peptide (5 μg/ml)” value was 21,208 c.p.m in assay [1] (T cell clone 1D2) and 29,509 c.p.m in assay [1] (T cell clone 2E10).
In the case of “L T I N K E E A L Q R P (LTINKEEALQRP) [bcr2-abl2, 12 mer of p210 joining region, bcr exon 2 fused to c-abl exon 2, reference compound]”, the “[^3H] Thymidine Incorporation (c.p.m.)” value in assay [1] (T cell clone 1D2) came to 274 c.p.m; in assay [1] (T cell clone 2B12), 341 c.p.m; in assay [1] (T cell clone 2D4), 143 c.p.m; in assay [1] (T cell clone 2E3) it was 402 c.p.m; in assay [1] (T cell clone 2E10), 287 c.p.m; in assay [1] (T cell clone 3B7), 349 c.p.m. The “[^3H] Thymidine Incorporation (c.p.m.)” value in assay [1] (T cell clone 3E11) is 299 c.p.m; in assay [1] (T cell clone 3G2), 478 c.p.m; in assay [1] (T cell clone 3G3) it was 217 c.p.m.
Take “H S A T G F K Q S S K A L Q R P V A (HSATGFKQSSKALQRPVA) [bcr3-abl2 18-mer]”: the “[^3H] Thymidine Incorporation (c.p.m.) after Stimulation with bcr3-abl2 peptide (5 μg/ml)” value in assay [1] (T cell clone 1D2) is given as 150,309 c.p.m; in assay [1] (T cell clone 2E10), 224,674 c.p.m.
Take “G F K Q S S K A L Q R P V A (GFKQSSKALQRPVA) [bcr3-abl2 14-mer peptide]”: the “[^3H] Thymidine Incorporation (c.p.m.) after Stimulation with bcr3-abl2 peptide (5 μg/ml)” value in assay [1] (T cell clone 1D2) was 238,297 c.p.m; in assay [1] (T cell clone 2E10), 170,085 c.p.m. Also, the “[^3H] Thymidine Incorporation (c.p.m.) after Stimulation with bcr-abl 12 peptide/proteins (μg/ml)” value in assay [1] (T cell clone 2E10, peptide/protein 0.04 μg/ml) was 6,303 c.p.m; in assay [1] (T cell clone 2E10, peptide/protein 0.2 μg/ml), 54,896 c.p.m; in assay [1] (T cell clone 2E10, peptide/protein 1 μg/ml), 92,970 c.p.m.
Turning to “G F K Q S S K A L Q R P V A S D (GFKQSSKALQRPVASD) [bcr3-abl2 16-mer]”, the “[^3H] Thymidine Incorporation (c.p.m.) after Stimulation with bcr3-abl2 peptide (5 μg/ml)” value in assay [1] (T cell clone 1D2) is listed as 108,309 c.p.m; in assay [1] (T cell clone 2E10), 139,083 c.p.m.
“Gln-61: p54-66 ras peptide with the normal glutamine at position 61 (DILDTAGQEEYSA; UniProt P01112 54-66, looked up, fragment)”: the proliferation in vitro entry in assay [2] is “not”.
On the same count and under the same terms, with “Leu-61 peptide: 13 residues 54-66 of ras p21 with leucine for glutamine at position 61 (DILDTAGLEEYSA; UniProt P01112 54-66, looked up, fragment Q61L)” the entry was “proliferate in vitro”.
“A F H G D A Q A L Q R P V A (AFHGDAQALQRPVA) [BCRI-abl2, 14 mer of p185 bcr-abl joining region, reference compound]”: the “[^3H] Thymidine Incorporation (c.p.m.)” value in assay [1] (T cell clone 1D2) was determined as 315 c.p.m; in assay [1] (T cell clone 2B12) it was 385 c.p.m; in assay [1] (T cell clone 2D4) it was 147 c.p.m; in assay [1] (T cell clone 2E3), 461 c.p.m; in assay [1] (T cell clone 2E10), 137 c.p.m; in assay [1] (T cell clone 3B7) it was 277 c.p.m. The figures for the “[^3H] Thymidine Incorporation (c.p.m.)” value in assay [1] (T cell clone 3E11), in assay [1] (T cell clone 3G2) and in assay [1] (T cell clone 3G3) were 398 c.p.m, 583 c.p.m and 351 c.p.m, respectively.
For “KLVVVGARGVGK [Arg-12 peptide, residues 5-16 of ras p21 with arginine for glycine at position 12]”, in assay [3], the “proliferative response in vitro” value was “proliferate specifically”.
Consider “I V H S A T G F K Q S S (IVHSATGFKQSS) [bcr3, reference compound]”, for which the “[^3H] Thymidine Incorporation (c.p.m.)” value stood at 294 c.p.m in assay [1] (T cell clone 1D2); 461 c.p.m in assay [1] (T cell clone 2B12); 133 c.p.m in assay [1] (T cell clone 2D4); 193 c.p.m in assay [1] (T cell clone 2E3); 667 c.p.m in assay [1] (T cell clone 2E10); 462 c.p.m in assay [1] (T cell clone 3B7). The entries for the “[^3H] Thymidine Incorporation (c.p.m.)” value in assay [1] (T cell clone 3E11), in assay [1] (T cell clone 3G2) and in assay [1] (T cell clone 3G3) were 305 c.p.m, 461 c.p.m and 190 c.p.m, respectively. Moreover, in assay [1] (proliferative assay with irradiated syngeneic APC), the “response of bcr3-abl2 peptide-specific T cell clones (in words)” value is “failed to respond”.
Take “Lys-61: p54-66 ras peptide with lysine for glutamine at position 61 (DILDTAGKEEYSA; UniProt P01112 54-66, looked up, fragment Q61K)”: the proliferation in vitro entry in assay [2] is “not”.
